{
  "source": "paper PMC5766581",
  "about": "“NF-κB inducing kinase is a therapeutic target for systemic lupus erythematosus” (Nature Communications, 2018)",
  "key": {"[1]": {"test_system": "rhCD40L induced ICOSL expression on human B cells", "assay": "ICOSL expression on human B cell assay", "assay_type": "cell-based", "conditions": "B-cell, ICOSL MFI by FACS, mean ± SD, read-out: CD40-induced ICOSL IC50", "description": "Human B cells were isolated from whole blood. B cells were enriched by RosetteSep protocol (Stem Cell Technologies), and then isolated using Human B cell isolation kit II (Miltenyi). […] Mean fluorescent intensity (MFI) of CD40L and BAFF induced ICOSL expression was measured by flow cytometry on cells stained with anti-CD20 and anti-ICOSL, using a FACS Calibur instrument (BD). Plots and IC50 measurements were generated using GraphPad Prism Software."}, "[2]": {"test_system": "p52 processing in mouse RPTEC", "assay": "TWEAK-induced p52 processing western blot in RPTEC", "assay_type": "cell-based", "conditions": "murine RPTEC; 3 μM; 4, 8 and 24 h", "description": "(§1) p52/p100 and β-actin were monitored by western blot as described previously. […] Mouse and human RPTEC cells were stimulated with recombinant mouse or human TWEAK (100 ng/mL, R&D Systems). Primary B cells were isolated by negative selection (Miltenyi) from either mouse spleen or human whole blood. Human primary B cells were stimulated with either rhCD40L (10 μg/mL) or rhBAFF (400 ng/mL) (R&D Systems). Mouse primary B cells were stimulated with either anti-CD40 (10 μg/mL, BD Biosciences) or rmBAFF (400 ng/mL). […] HeLa cells (ATCC) were stimulated for 8 h with anti-LTβR agonist antibody and cytoplasmic and nuclear extracts were generated using kits purchase from Thermo Scientific and approximately […] of each extract was monitored for p52/p100, phospho-RelA, RelA, or β-Actin, Histone H3, or Lamin B1 controls. Uncropped western blots, as required by journal policies, are provided in Supplementary Fig. 13 and 14."}, "[3]": {"test_system": "p52 processing in human RPTEC", "assay": "TWEAK-induced p52 processing western blot in RPTEC", "assay_type": "cell-based", "conditions": "1 μM, 4, 8 and 24 h", "description": "as §1"}, "human B cells [4]": {"test_system": "human B cells", "assay": "Human B cell rhCD40L proliferation assay", "assay_type": "cell-based", "conditions": "Homo sapiens, B-cell; thymidine incorporation, day four; read-out: Human B cell anti-CD40 proliferation IC50"}, "[5]": {"test_system": "TWEAK inducible genes in murine RPTEC", "assay": "TWEAK-induced NIK-dependent gene expression in RPTECs (RNASeq)", "assay_type": "cell-based, mouse", "conditions": "3 μM", "description": "Total RNA was extracted using Qiagen RNeasy kit as per manufacturer’s protocol including the on-column DNase digestion. Quality control of samples was done to determine RNA quantity and quality prior to their processing by RNA-seq. The concentration of RNA samples was determined using NanoDrop 8000 (Thermo Scientific) and the integrity of RNA was determined by Fragment Analyzer (Advanced Analytical). 0.5 ug of total RNA was used as an input material for library preparation using TruSeq RNA Sample Preparation Kit v2 (Illumina). Size of the libraries was confirmed using 2200 TapeStation and High Sensitivity D1K screen tape (Agilent Technologies) and their concentration was determined by qPCR based method using Library quantification kit (KAPA). The libraries were multiplexed and then sequenced on Illumina HiSeq2500 (Illumina) to generate 30 M of single end 50 base pair reads. […] Raw RNA sequencing reads were processed using the HTSeqGenie Bioconductor package. Reads were aligned to the reference mouse genome sequence (National Center for Biotechnology Information build 37) using the Genomic Short-Read Nucleotide Alignment Program algorithm. Uniquely aligned read pairs that fell within exons were counted to estimate individual gene expression levels. For inclusion, genes were required to have >10 reads in at least four samples. […] Data were analyzed and plotted using Expression Plot[72]."}, "NZB/W F1 mice": {"test_system": "NZB/W F1 mice", "assay": "rAdV-IFNα-accelerated NZB/W F1 lupus model, survival study", "assay_type": "in vivo, mouse", "description": "Age-matched (NZB x NZW) F1 mice were purchased from Jackson Laboratory. Fourteen to fifteen weeks old female NZB/W F1 mice were injected i.v. with 1.2 × 10^8 rAD5-CMV-IFNα (rAdV-IFNα) particles (Genentech) to accelerate disease[34],[69]. […] In efficacy studies, proteinuria and survival were tracked through day 84. A 4-week PD study was performed to measure cell subsets, serum Ig, chemokines, cytokines, and gene expression.\nKidneys were immersed in 10% neutral buffered formalin at ambient temperature for 24 h, then paraffin-embedded using routine methods. Four micron histologic sections were stained with Periodic acid–Schiff (PAS) for evaluation of glomerulonephritis and hematoxylin and eosin (H&E) for visual evaluation of interstitial inflammation by light microscopy. Scoring by the pathologist was performed in a blinded fashion. Glomerulonephritis severity scoring was on a 4-point semi-quantitative scale: “0” – normal or mild global lesions in <50% of glomeruli, “1”—global lesions in > 50% of glomeruli, <20% of which are severe (defined as >1 segment with <3 patent capillaries), “2”—global lesions in >50% of glomeruli, 20–80% of which are severe, and “3”— >80% of glomeruli with severe global lesions. Chronic pyelitis, cortical periarteritis, and tubulointerstitial nephritis severity was determined by blinded disease scoring. Severity scores for tubulointerstitial nephritis, periarteritis, and pyelitis were all on 4-point semiquantitative scales: “0”—no significant inflammation, “1”—sparse or focal inflammatory infiltrates, “2”—occasional moderately sized inflammatory infiltrates, and “3”—frequent large inflammatory infiltrates. Proteinuria measurements were done by dipstick (Multistix, Bayer Diagnostics). Protein concentration was assigned a proteinuria score with trace = […] = 1, 100 mg/dl = 2, >300 mg/dl = 4, and dead mice = 5."}, "human B cells [6]": {"test_system": "human B cells", "assay": "Human B cell anti-IgM proliferation assay", "assay_type": "cell-based", "conditions": "Homo sapiens, B-cell; thymidine incorporation, day four"}, "[7]": {"assay": "In vivo studies in mice: PK, target coverage, tolerability", "design": "species or system mouse"}, "[8]": {"test_system": "IL-12p40 production from mouse splenic DC", "assay": "anti-CD40-induced IL-12p40 production from splenic DCs", "assay_type": "cell-based", "conditions": "WT mouse splenic DC (not in NIK-deficient); 3 µM or 1 µM, 18 hrs", "description": "Supplementary Figure 2. NIK inhibition of IL-12p40 production from splenic DCs Splenic DCs (B220- CD11c +) were sorted from Nik WT/WT,CD11c-CRE + and Nik fl/fl, CD11c- […]\nµM) for 18 hrs. IL-12p40 production was measured by ELISA. Data represented as mean ± standard deviation of 3 biological replicates. One-way ANOVA with Tukey’s test for multiple comparisons. *p<0.05, **p<0.01, ***p<0.001; ****p<0.0001; ns, not significant."}},
  "data": [
    {"smiles": "COc1cc(C(N)=O)nc(-c2cccc(C#C[C@]3(O)CCN(C)C3=O)c2)c1", "note": "[NIK SMI1]", "values": [
      {"measurement": "IC50", "setting": "[1]", "value": 0.0846, "unit": "µM"},
      {"measurement": "TWEAK-induced p52 processing", "setting": "[2]", "value": "significantly reduced"},
      {"measurement": "TWEAK-induced p52 processing", "setting": "[3]", "value": "significantly reduced"},
      {"measurement": "IC50", "setting": "human B cells [4]", "value": "> 10", "unit": "µM"},
      {"measurement": "TWEAK inducible gene expression", "setting": "[5]; 6 and 24 h, RNASeq", "value": "majority of TWEAK inducible genes were inhibited"},
      {"measurement": "genes induced by TWEAK and repressed by NIK SMI1", "setting": "[5]; RPTEC in vitro", "value": 179, "unit": "genes"},
      {"measurement": "reduction of mortality", "setting": "NZB/W F1 mice; 180 mg/kg BID P.O., 9 weeks", "value": "about 50%"},
      {"measurement": "inhibition of NIK at the time point of lowest exposure", "setting": "NZB/W F1 mice; 180 mg/kg, 12 h after the prior dose, based on PK sampling", "value": "about 70%"},
      {"measurement": "proteinuria score", "setting": "NZB/W F1 mice; 9 weeks of treatment, AUC day 19-84", "value": "statistically significant reduction"},
      {"measurement": "survival", "setting": "NZB/W F1 mice; IFNα-accelerated NZB/W F1 mice", "value": "improved survival"},
      {"measurement": "IC50", "setting": "human B cells [6]", "value": "> 10", "unit": "µM"},
      {"measurement": "adverse effect not explained by on-target pharmacology", "setting": "[7]; 180 mg/kg, no formal toxicity assessment", "value": "never observed any adverse effect"},
      {"measurement": "coverage of NIK activity in vivo", "setting": "[7]; doses used in vivo", "value": "70–90%"},
      {"measurement": "PK properties", "setting": "[7]; mouse, in vivo", "value": "excellent"},
      {"measurement": "anti-CD40-induced IL-12p40 production", "setting": "[8]", "value": "reduced"}
    ]}
  ]
}
